From article PMC12350126, “A novel carboxamide bromodomain inhibitor attenuates osteoarthritis via epigenetic repression of NF-κB and MAPK signaling” (Frontiers in Immunology, 2025)

How the values were obtained:
BRD2 (BD1 + BD2) = biological target: T1, BRD2 (BD1 + BD2) (Homo sapiens, UniProt P25440); assay: TR-FRET assay, BRD2 (BD1 + BD2); details: lower signal = stronger binding
T1 construct: kits specific for BRD2 (BD1 + BD2); purchased BPS Bioscience
Method: TR-FRET assays were conducted using kits specific for BRD2 (BD1 + BD2), BRD3 (BD1 + BD2), and BRD4 (BD1 + BD2) obtained from BPS Bioscience (San Diego, CA, USA). Bromodomain ligands were diluted in water, and master mixes were prepared by combining the diluted ligands with 1× BRD Homogeneous Assay Buffer. Thawed BRD proteins were also diluted with the same buffer. For each assay, 1.5 μL of the master mix was dispensed into wells of a microplate (Labcyte, San Jose, CA, USA), followed by the addition of 5 μL of diluted BRD protein to initiate the reaction. Plates were incubated at 20–22°C for 30–60 min. Subsequently, glutathione (GSH) acceptor beads and streptavidin-conjugated donor beads (both from PerkinElmer, Waltham, MA, USA) were diluted in 1× BRD Homogeneous Detection Buffer 1. Next, 10 μL of the acceptor bead solution was added to each well and incubated at 18°C for 30 min, followed by the addition of 10 μL of donor bead solution and a further incubation at 18°C for 15–30 min. Alpha particle counts were measured using an EnVision 2105 multimode plate reader (PerkinElmer).

BRD2 BD2 = biological target: T2, BRD2 BD2 (Homo sapiens, UniProt P25440); assay: Biosensor binding kinetics assay (Octet), BRD2 BD2
T2 construct: biotinylated BRD2 BD1, BRD2 BD2; biotin (biotinylated protein); made in house; host or cells: Escherichia coli BL21(DE3)
T2 sequence (P25440 344-453 limits assumed): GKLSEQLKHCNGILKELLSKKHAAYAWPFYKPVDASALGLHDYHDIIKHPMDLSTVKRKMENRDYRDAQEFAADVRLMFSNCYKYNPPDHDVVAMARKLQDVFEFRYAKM
Method: Binding kinetics were assessed using the Octet® R2 system (Sartorius, Göttingen, Germany). Superstreptavidin biosensors were loaded with biotinylated BRD2 BD1, BRD2 BD2, BRD3 BD1, BRD3 BD2, BRD4 BD1, BRD4 BD2, or biotin alone (as a negative control) in PBST buffer (phosphate-buffered saline containing 0.02% Tween 20 and 5% DMSO). The sensors were then dipped into compound solutions for 10 min. To evaluate association kinetics (kon), each sensor was exposed to serial dilutions of the protein for 180 s, followed by dipping them into PBST buffer to assess dissociation kinetics (koff). For control, a separate sensor loaded with the compound was dipped into PBST alone. Competition binding assays were performed by exposing the compound-loaded sensor to mixtures of proteins and test compounds.

[1] = tested on: IL-1β-induced Mmp3, Mmp13 and Cox2 expression in mouse articular chondrocytes; assay: IL-1β-induced Mmp3, Mmp13, Cox2 expression in chondrocytes (qRT-PCR, western blotting); type: cell-based; details: IL-1β 1 ng/mL
Method: NCD was supplied by Benobio Co (Gyeonggi-do, Korea), and IL‐1β was purchased from GenScript (Piscataway, NJ, USA). NCDs were dissolved in phosphate-buffered saline (PBS) for oral administration or IA injection.
Total RNA was extracted from mouse articular chondrocytes using TRIzol (Molecular Research Center Inc., Cincinnati, OH, USA) and the primers used were for the MMPs, glyceraldehyde 3-phosphate dehydrogenase (GAPDH), and Cox2. Primers utilized were as follows: mouse Mmp3 (5′-TCCTGATGTTGGTGGCTTCAG-3′ and 5′-TGTCTTGGCAAATCCGGTGTA-3′); mouse Mmp13 (5′-TGATGGACCTTCTGGTCTTCTGG-3′ and 5′-CATCCA CATGG TTGGG AAGT TCT-3′); mouse Cox2 (5′-GGTCTGGTGCCTGGTCTGATGAT-3′ and 5′-GTCCTTTCAAGGAGAATGGTGC-3′); mouse Gapdh (5′-TCACT GCCAC CCAGA AGAC-3′ and 5′-TGTAG GCCAT GAGGT CCAC-3′). Gene transcript expression levels were normalized against that of Gapdh by qRT-PCR using SYBR premix ExTaq (Takara Bio, Shiga, Japan). Results were expressed as fold-changes relative to the expression in the control group ([20]).
The total protein was extracted from the primary cultured chondrocytes using a lysis buffer, containing 150 mM NaCl, 1% NP-40, 50 mM Tris/HCl (pH 8.0), 0.2% sodium dodecyl sulfate, and 5 mM NaF, supplemented with protease and phosphatase inhibitor mixture (Roche, Madison, WI, USA). Proteins were separated using sodium dodecyl sulfate-polyacrylamide gel electrophoresis, and western blot analysis was performed using the following antibodies: goat anti‐Cox2 (sc‐1745; Santa Cruz Biotechnology, Dallas, TX, USA), mouse anti-Erk1/2 (610408; Becton Dickinson, NJ, USA), mouse anti-IκB [9242; Cell Signaling Technology (CST), MA, USA], mouse anti-p65 (8242; CST), mouse anti-phospho-p65 (3033; CST), mouse anti-p38 (#9212; CST), mouse anti-pp38 (#9215S; CST), mouse anti-c-Jun N-terminal kinase (Jnk) (#9252S; CST), mouse anti-pJnk (#9251S; CST), and mouse anti-pErk (#9101S; CST). Each signal was visualized using a SuperSignal West Dura Kit (Thermo Fisher Scientific, Waltham, MA, USA). Density analysis (AlphaEase FC 4.0; Alpha Innotech, CA, USA) was performed to calculate the relevant band intensities. Extracellular signal-regulated kinase (Erk) was used as the loading control ([28]).

[2] = PK analysis after intravenous administration in SD rats; type: in vivo, rat; design: AUC: unit not given here; details: for AUC(0-t) / Cmax / half-life: male, rat, plasma
Method: SD rats (male, 6 weeks old) were obtained from Orient Bio (Seoul, Korea) and housed under pathogen-free conditions. All animal procedures were conducted in accordance with the guidelines of the Animal Care Facility at Biotoxtech Co., Ltd. (Chungcheongbuk-do, Korea). NCD was administered intravenously (IV) to SD rats at doses of 5, 10, or 20 mg/kg to evaluate its pharmacokinetics. Blood samples were collected from the jugular vein at various time points, mixed with 3.8% (w/v) sodium citrate, and centrifuged at 8,000 × g for 30 min to obtain plasma. The plasma samples were then mixed with acetonitrile (33%, v/v), vortexed for 5 min, and centrifuged at 13,000 × g for 10 min. The concentration of NCD in plasma was determined using high-performance liquid chromatography (HPLC; Shimadzu, Japan) equipped with a UV detector. Pharmacokinetic parameters were calculated using Microsoft Excel ([31]).

liver, lungs of mice = assay: In vivo organ histology after oral or IA administration
[3] = NCD 10, 50, 100 µM, 12 h, qRT-PCR

T1 sequence (P25440 65-459 limits assumed): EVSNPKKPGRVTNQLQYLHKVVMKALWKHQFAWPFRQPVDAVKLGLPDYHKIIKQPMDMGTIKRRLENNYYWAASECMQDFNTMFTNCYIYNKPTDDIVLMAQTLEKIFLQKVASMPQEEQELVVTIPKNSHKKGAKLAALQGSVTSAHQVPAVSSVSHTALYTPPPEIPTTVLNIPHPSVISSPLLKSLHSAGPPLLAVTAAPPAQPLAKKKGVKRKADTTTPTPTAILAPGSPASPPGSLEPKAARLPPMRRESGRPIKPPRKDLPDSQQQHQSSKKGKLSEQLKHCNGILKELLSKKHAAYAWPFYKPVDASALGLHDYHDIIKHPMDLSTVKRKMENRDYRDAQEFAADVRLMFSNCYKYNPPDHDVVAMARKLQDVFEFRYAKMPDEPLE

In the case of `CNC(=O)CC1C(=O)NCCN1Cc1ccc(-c2ccccc2-c2cccc3c2CN(C)C3=O)o1` (stereo not shown) [NCD, N-methyl-2-(1-((5-(2-(2-methyl-1-oxoisoindolin-4-yl)phenyl)furan-2-yl)methyl)-3-oxopiperazin-2-yl)acetamide], the TR-FRET value (BRD2 (BD1 + BD2)) is reported as 96511 RLU, the Kd (BRD2 BD2) is reported as 104 nM and the “Cox2 mRNA expression” value [1, 3] is reported as “marked, concentration-dependent suppression”. For the same molecule, the “Mmp3 mRNA expression” value [1, 3] was “marked, concentration-dependent suppression”, the “Mmp13 mRNA expression” value [1, 3] was “marked, concentration-dependent suppression” and the “mRNA and protein levels of Cox2” value ([1]; NCD 50 and 100 µM) was “substantially reduced”. The AUC ([2]; 5 mg/kg) was 631.83, the AUC ([2]; 20 mg/kg) was 4526.66 and the AUC(0-t) ([2]; 5 mg/kg) was 632 ng·h/mL. The Cmax ([2]; 5 mg/kg) was 1110 ng/mL, the half-life ([2]; 5 mg/kg) was 24.6 min and the AUC(0-t) ([2]; 10 mg/kg) was 1730 ng·h/mL. For the same molecule, the Cmax ([2]; 10 mg/kg) was 2560 ng/mL, the half-life ([2]; 10 mg/kg) was 35.4 min and the AUC(0-t) ([2]; 20 mg/kg) was 4530 ng·h/mL. The Cmax ([2]; 20 mg/kg) was 4150 ng/mL, the half-life ([2]; 20 mg/kg) was 45.6 min and the “Cytotoxicity in the liver or lungs (histological analyses)” value (liver, lungs of mice; oral and intra-articular administration) was “no apparent cytotoxicity”. The “Organ toxicity in vivo” value (liver, lungs of mice; oral or IA routes) was “without causing detectable organ toxicity”.
